{"source": "patent US12325710B2", "about": "“Substituted 1,2,3,4,5,6-hexahydroazepino[4,5-b]indoles for treating brain disorders” (priority 2019, dated 2025)", "key": {"[1]": {"target": "T1, 5-HT1A (Homo sapiens, UniProt P08908)", "T1 construct": "expressed in transfected cells; host or cells: HEKT cells (GloSensor cAMP assay)", "T1 sequence (P08908 1-422)": "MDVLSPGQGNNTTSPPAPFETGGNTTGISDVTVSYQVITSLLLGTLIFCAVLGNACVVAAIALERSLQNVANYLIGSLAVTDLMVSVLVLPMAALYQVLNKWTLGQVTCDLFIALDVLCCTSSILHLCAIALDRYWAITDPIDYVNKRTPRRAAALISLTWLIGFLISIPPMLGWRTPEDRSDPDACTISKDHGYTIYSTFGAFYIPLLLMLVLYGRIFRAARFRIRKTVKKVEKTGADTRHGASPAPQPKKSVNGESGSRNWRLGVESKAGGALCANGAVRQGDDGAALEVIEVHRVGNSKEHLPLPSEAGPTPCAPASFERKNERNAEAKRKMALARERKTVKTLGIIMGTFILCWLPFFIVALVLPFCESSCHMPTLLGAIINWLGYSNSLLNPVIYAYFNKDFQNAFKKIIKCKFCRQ", "experiment": "5-HT1A functional assay (Gi/o-mediated cAMP inhibition)", "assay_type": "cell-based", "method": "Serotonin and Opioid Receptor Functional Assays. Functional assay screens at 5-HT and opioid receptors were performed in parallel using the same compound dilutions and 384-well format high-throughput assay platforms. Assays assessed activity at all human isoforms of the receptors, except where noted for the mouse 5-HT2A receptor. Receptor constructs in pcDNA vectors were generated from the Presto-Tango GPCR library with minor modifications. All compounds were serially diluted in drug buffer (HBSS, 20 mM HEPES, pH 7.4 supplemented with 0.1% bovine serum albumin and 0.01% ascorbic acid) and dispensed into 384-well assay plates using a FLIPR^TETRA (Molecular Devices). Every plate included a positive control such as 5-HT (for all 5-HT receptors), DADLE (DOR), salvinorin A (KOR), and DAMGO (MOR). For measurements of 5-HT2A, 5-HT2B, and 5-HT2C Gq-mediated calcium flux function, HEK Flp-In 293 T-Rex stable cell lines (Invitrogen) were loaded with Fluo-4 dye for one hour, stimulated with compounds and read for baseline (0-10 seconds) and peak fold-over-basal fluorescence (5 minutes) at 25° C. on the FLIPR^TETRA. For measurement of 5-HT6 and 5-HT7a functional assays, Gs-mediated cAMP accumulation was detected using the split-luciferase GloSensor assay in HEKT cells measuring luminescence on a Microbeta Trilux (Perkin Elmer) with a 15 min drug incubation at 25° C. […]"}, "[2]": {"system": "larval zebrafish expressing GCaMP5", "experiment": "Seizurogenic potential in larval zebrafish expressing GCaMP5", "assay_type": "in vivo", "settings": "200 μM; PTZ positive control", "method": "Transgenic larval zebrafish expressing GCaMP5G were immobilized in agarose, treated with compounds, and imaged over time. The known seizure-inducing compound PTZ was used as a positive control. All compounds were treated at 200 μM (n=2 per condition)."}, "[3]": {"system": "larval zebrafish", "experiment": "Larval zebrafish movement activity during a battery of light and acoustic stimuli", "source_text": "Stimuli applied over time are indicated under the heatmaps. Colors indicate bright LED light of respective colors, black traces represent the waveforms of acoustic stimuli, and gray vertical lines indicate physical tapping as secondary acoustic stimuli.\nResponse is […] proportional to classification accuracy; 0-20% indicates no ability and 100% indicates perfect classification. […] The solid line denotes the median and the shading denotes a 95th percentile confidence interval calculated by bootstrap. N=8 wells/condition (64 animals/condition)."}, "[4]": {"experiment": "physchem", "settings": "saline or isotonic"}, "[5]": {"system": "rat embryonic cortical neurons", "experiment": "Dendritogenesis (Sholl analysis) in cultured cortical neurons", "assay_type": "cell-based", "method": "Embryonic rat cortical neurons were treated for a short period of time (1 h) followed by a suitable growth period (71 h) to measure the psychoplastogenic effects of the compounds described herein. […] Therefore, the effects of ibogalogs 8-17 on dendritic growth was assessed.\nDendritogenesis Experiments. For the dendritogenesis experiments conducted using cultured cortical neurons, timed pregnant Sprague Dawley rats were obtained from Charles River Laboratories (Wilmington, MA). Full culturing, staining, and analysis details were performed as previously described. (Dunlap, L. et al., 2019)"}, "[6]": {"system": "C57/BL6J mice", "experiment": "Forced swim test (FST)", "assay_type": "in vivo, mouse", "settings": "24 h after drug administration; TBG 50 mg/kg, ketamine 3 mg/kg i.p.", "method": "Forced Swim Test (FST). Male C57/BL6J mice (9-10 weeks old at time of experiment, n=10 per condition) were obtained from the Jackson Lab and housed 4-5 mice/cage in a UCD vivarium following an IACUC approved protocol. After 1 week in the vivarium each mouse was handled for approximately 1 minute by a experimenter for 3 consecutive days leading up to the first FST. All experiments were carried out by the same experimenter who performed handling. During the FST, mice underwent a 6 min swim session in a clear Plexiglas cylinder 40 cm tall, 20 cm in diameter, and filled with 30 cm of 24±1° C. water. Fresh water was used for every mouse. After handling and habituation to the experimenter, drug-naïve mice first underwent a pretest swim to more reliably induce a depressive phenotype in the subsequent FST sessions. Immobility scores for all mice were determined after the pre-test and mice were randomly assigned to treatment groups to generate groups with similar average immobility scores to be used for the following two FST sessions. […] Experiments were video-recorded and manually scored offline. Immobility time—defined as passive floating or remaining motionless with no activity other than that needed to keep the mouse's head above water—was scored for the last 4 min of the 6 min trial."}}, "note": "“Also recorded” adds a separate entry of the source."}
{"smiles": "COc1ccc2c3c([nH]c2c1)CCN(C)CC3", "note": "[TBG]", "values": [{"measurement": "5-HT1A agonist activity compared to 5-MeO-DMT", "setting": "[1]", "value": "weaker 5-HT1A and 5-HT2C agonist activity"}, {"measurement": "seizure induction (neural activity)", "setting": "[2]", "value": "Neither ibogaine nor TBG produced excessive neural activity; also recorded: does not induce seizures"}, {"measurement": "behavioral phenotype at highest concentration versus lethal control", "setting": "[3]; 200 μM", "value": "did not produce this phenotype"}, {"measurement": "behavioral phenotype with increasing concentration versus vehicle and lethal control (eugenol, 100 μM)", "setting": "[3]; 1 h treatment, concentration-response", "value": "do not produce movement responses in larval zebrafish similar to a lethal concentration of eugenol"}, {"measurement": "machine learning classification of movement responses", "setting": "[3]; highest concentrations (200 μM)", "value": "more similar to vehicle controls than to ibogaine, noribogaine, or lethal controls"}, {"measurement": "solubility", "setting": "[4]", "value": "≥ 40", "unit": "mg/mL"}, {"measurement": "dendritic arbor complexity (Sholl analysis, Nmax)", "setting": "[5]; DIV6", "value": "increased dendritic arbor complexity"}, {"measurement": "effect on dendritic growth after pretreatment with ketanserin (5-HT2A antagonist)", "setting": "[5]; ketanserin pretreatment", "value": "blocked by the 5-HT2A antagonist ketanserin; also recorded: completely abrogated its effects"}, {"measurement": "immobility in FST", "setting": "[6]", "value": "antidepressant-like effects; also recorded: significantly reduced immobility"}]}
